According to patent publication US9290440B2, “Bicyclic compound” (TOA EIYO LTD., priority 2012, dated 2016):
Like-named read-outs stand apart in the source and are kept apart here.

Legend:
[1] = target: T1, human sGC α subunit and β subunit (Homo sapiens, UniProt Q02153); assay: Maximum effect of sGC activating function (Ca2+ fluorescence in CHO-K1 cells expressing human sGC and mouse CNGA2); assay type: cell-based; details: increase ratio of sGC activity vs control solution at 10 μmol/L test compound
T1 construct: expressed in transfected cells
T1 sequence (Q02153 1-619): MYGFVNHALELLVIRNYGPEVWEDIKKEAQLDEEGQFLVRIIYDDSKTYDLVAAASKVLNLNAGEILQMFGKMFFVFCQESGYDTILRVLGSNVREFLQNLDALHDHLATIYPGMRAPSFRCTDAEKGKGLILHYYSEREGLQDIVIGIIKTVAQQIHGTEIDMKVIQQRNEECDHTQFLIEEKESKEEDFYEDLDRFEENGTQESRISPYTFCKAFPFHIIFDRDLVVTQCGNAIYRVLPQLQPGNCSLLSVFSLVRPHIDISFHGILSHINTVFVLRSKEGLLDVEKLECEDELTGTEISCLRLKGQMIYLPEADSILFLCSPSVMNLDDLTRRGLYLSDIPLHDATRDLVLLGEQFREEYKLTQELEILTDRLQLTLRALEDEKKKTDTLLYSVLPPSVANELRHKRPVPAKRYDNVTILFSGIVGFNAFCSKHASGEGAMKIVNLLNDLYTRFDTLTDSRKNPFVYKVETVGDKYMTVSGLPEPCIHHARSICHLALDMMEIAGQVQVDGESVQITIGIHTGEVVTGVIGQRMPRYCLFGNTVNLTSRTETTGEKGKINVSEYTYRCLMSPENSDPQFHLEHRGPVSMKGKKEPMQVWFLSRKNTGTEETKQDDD
T1 sequence (Q02108 1-690 partner): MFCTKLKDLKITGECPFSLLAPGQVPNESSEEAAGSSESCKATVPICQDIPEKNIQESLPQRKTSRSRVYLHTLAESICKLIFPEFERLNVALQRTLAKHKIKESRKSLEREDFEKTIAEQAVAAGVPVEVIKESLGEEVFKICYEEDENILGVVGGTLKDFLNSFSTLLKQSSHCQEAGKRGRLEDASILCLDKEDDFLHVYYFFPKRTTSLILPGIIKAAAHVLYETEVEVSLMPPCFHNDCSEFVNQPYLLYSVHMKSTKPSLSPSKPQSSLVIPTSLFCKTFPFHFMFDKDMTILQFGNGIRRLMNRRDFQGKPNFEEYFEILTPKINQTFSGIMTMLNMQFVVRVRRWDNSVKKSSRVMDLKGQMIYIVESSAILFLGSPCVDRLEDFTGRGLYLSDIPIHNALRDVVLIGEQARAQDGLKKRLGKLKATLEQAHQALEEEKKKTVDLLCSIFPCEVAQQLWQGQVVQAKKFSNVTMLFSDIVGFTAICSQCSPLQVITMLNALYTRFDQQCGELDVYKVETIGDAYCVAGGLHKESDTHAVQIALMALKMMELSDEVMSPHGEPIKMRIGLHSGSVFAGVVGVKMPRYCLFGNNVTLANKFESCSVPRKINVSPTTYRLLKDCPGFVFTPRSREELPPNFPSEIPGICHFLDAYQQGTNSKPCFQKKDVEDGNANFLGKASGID
Procedure: (§1) For the assay, Chinese hamster ovary cells (CHO-K1 cells) in which human sGC α subunit and β subunit and mouse cyclic nucleotide gated channel (CNGA2) are stably expressed were used.
(§2) CHO-K1 cells in which human sGC and mouse CNGA2 are stably expressed were cultured at 37° C. in F-12 medium containing 10% (v/v) fetal bovine serum (FBS), penicillin (100 U/mL), streptomycin (100 μg/mL), G418 (250 μg/mL), and zeocin (250 μg/mL). The cells were suspended in the culture medium and seeded onto a 96-well plate, and then cultured at 37° C. for 24 hours. After washing with assay buffer 1 (140 mmol/L sodium chloride, 5 mmol/L potassium chloride, 0.5 mmol/L magnesium chloride, 0.01 mmol/L calcium chloride, 10 mmol/L glucose, 0.4 mmol/L magnesium sulfate, 10 mmol/L 4-(2-hydroxyethyl)piperazin-1-ylethane sulfonic acid, and 125 μmol/L sulfinpyrazone, pH 7.4), an indicator solution in which FURA2-AM as a fluorescent Ca^2+ indicator is dissolved at concentration of 5 μmol/L in assay buffer 1 was added followed by culture for 60 minutes at 37° C. The indicator solution was removed. After washing with assay buffer 1, the test compound solution was added and incubated for 10 minutes at room temperature. The plate was placed in a fluorometer (Flex Station II, Molecular Devices, LLC), and then the intracellular calcium concentration was measured as fluorescence intensity ratio which is obtained from each excitation wavelength (excitation wavelength of 340 nm and 380 nm and detection wavelength of 510 nm).
(§3) The test compound solution was prepared by dissolving each of the test compounds in DMSO to a concentration of 10 mmol/L, and then adding the assay buffer 2 (140 mmol/L sodium chloride, 5 mmol/L potassium chloride, 0.5 mmol/L magnesium chloride, 1 mmol/L calcium chloride, 10 mmol/L glucose, 0.4 mmol/L magnesium sulfate, 10 mmol/L 4-(2-hydroxyethyl)piperazin-1-ylethane sulfonic acid, 125 μmol/L sulfinpyrazone, 100 μmol/L isobutylmethylxanthine, 10 μmol/L 1H-[1,2,4]-oxadiazole[4,3-a]quinoxalin-1-one (hereinbelow, ODQ), pH 7.4) for dilution to have test concentration of 10 μmol/L. For the evaluation of a case in which ODQ is not contained, the same evaluation was performed except that ODQ is excluded from assay buffer 2. As a control solution, a DMSO solution was used instead of the test compound solution.
(§4) The activity of the test compound corresponds to the increase ratio (%) of the sGC activity at the time of adding the test compound solution with respect to the sGC activity at the time of adding the control solution, and it was calculated by dividing the fluorescence intensity ratio at the time of adding the test compound by the fluorescence intensity ratio of the control solution and subtracting the sGC activity (100%) at the time of adding the control solution.
In this assay, intracellular cGMP concentration increases as sGC is activated, and according to opening of CNGA2 following the increase of cGMP, intracellular Ca^2+ concentration increases. Thus, SGC activation can be measured by following the change in intracellular Ca^2+ concentration. […] Thus, in the absence of ODQ, the maximum sGC activating function including the heme-dependent activation can be evaluated while the heme-independent sGC activating function can be evaluated in the presence of ODQ.

[2] = target: T1, human sGC α subunit and β subunit; assay: Heme-independent property of sGC activating function (EC50 ratio, CHO-K1 cells expressing human sGC and mouse CNGA2); assay type: cell-based; details: EC50 in the absence of ODQ divided by EC50 in the presence of ODQ, sGC activation
Procedure: as §1, §2, §3, §4
For the representative compounds, activity was measured in the same manner as Test Example 1 at each test concentration of 0.0001, 0.001, 0.003, 0.01, 0.03, 0.1, 1, and 10 μmol/L.
The degree of heme-independent property of each test compound with regard to sGC activating function was obtained by dividing, for EC50 measured from the concentration-activation curve which has been established from the above, EC50 in the absence of ODQ by EC50 in the presence of ODQ. Specifically, the smaller the EC50 ratio is, the less the change in sGC activating function is, the change in the function being caused by the presence or absence of ODQ, and thus it is found to be more heme-independent.
EC50 value was obtained by measuring the activity of each compound to be tested at concentrations of 0.0001, 0.001, 0.003, 0.01, 0.03, 0.1, 1, and 10 μmol/L and performing the calculation using four-parameter logistics model using Assay Explorer (Accelrys).

[3] = ODQ not contained, read-out: Emax (%) ODQ− (Heme-dependent)
[4] = with 10 μmol/L ODQ, read-out: Emax (%) ODQ+ (Heme-independent)

| SMILES | Emax at 10 µM [1, 3] [%] | Emax at 10 µM [1, 4] [%] | EC50 Ratio (ODQ−/ODQ+) [2] |
| --- | --- | --- | --- |
| O=C(O)CCCCN(CCc1ccccc1OCc1ccc(CCc2ccccc2)cc1)C1CCc2cc(C(=O)O)ccc21 (stereo not drawn) [Example 1, 1-{N-(4-Carboxybutyl)-N-[2-[2-[4-(2-phenylethyl)benzyloxy]phenyl]ethyl]amino}indane-5-carboxylic acid] | 85.6 | 103 | 2.86 |
| O=C(O)CCCCN(CCc1ccccc1OCc1ccc(CCc2ccccc2)cc1)C1CCCc2cc(C(=O)O)ccc21 (stereo not drawn) [Example 2, 5-{N-(4-Carboxybutyl)-N-[2-[2-[4-(2-phenylethyl)benzyloxy]phenyl]ethyl]amino}-5,6,7,8-tetrahydronaphthalene-2-carboxylic acid] | 97.5 | 109 | 2.67 |
| O=C(O)CCCCN(CCc1ccccc1OCc1ccc(CCc2ccccc2)cc1)C1CCCCc2cc(C(=O)O)ccc21 (stereo not drawn) [Example 3, 5-{N-(4-Carboxybutyl)-N-[2-[2-[4-(2-phenylethyl)benzyloxy]phenyl]ethyl]amino}-6,7,8,9-tetrahydro-5H-benzocycloheptene-2-carboxylic acid] | 102 | 111 | 2.54 |
| O=C(O)CCCCN(CCc1ccccc1OCc1ccc(CCc2ccccc2)cc1)C1CCOc2cc(C(=O)O)ccc21 (stereo not drawn) [Example 4, 4-{N-(4-Carboxybutyl)-N-[2-[2-[4-(2-phenylethyl)benzyloxy]phenyl]ethyl]amino}chromane-7-carboxylic acid] | 114 | 109 | 2.85 |
| O=C(O)CCCCN(CCc1ccccc1OCc1ccc(CCc2ccccc2)cc1)C1CCSc2cc(C(=O)O)ccc21 (stereo not drawn) [Example 5, 4-{N-(4-Carboxybutyl)-N-[2-[2-[4-(2-phenylethyl)benzyloxy]phenyl]ethyl]amino}thiochromane-7-carboxylic acid] | 84.5 | 86.9 | – |
| O=C(O)CCCCN(CCc1ccccc1OCc1ccccc1Cl)C1CCCc2cc(C(=O)O)ccc21 (stereo not drawn) [Example 13, 5-{N-(4-Carboxybutyl)-N-[2-[2-(2-chlorobenzyloxyl)phenyl]ethyl]amino}-5,6,7,8-tetrahydronaphthalene-2-carboxylic acid] | 64.2 | 87.2 | – |
| O=C(O)CCCCN(CCc1ccccc1OCc1ccc(COc2ccccc2)cc1)C1CCCc2cc(C(=O)O)ccc21 (stereo not drawn) [Example 16, 5-{N-(4-Carboxybutyl)-N-[2-[2-(4-phenoxymethylbenzyloxy)phenyl]ethyl]amino}-5,6,7,8-tetrahydronaphthalene-2-carboxylic acid] | 116 | 97.5 | – |
| O=C(O)CCCCN(CCc1ccccc1OCc1ccc(CSc2ccccc2)cc1)C1CCCc2cc(C(=O)O)ccc21 (stereo not drawn) [Example 17, 5-{N-(4-Carboxybutyl)-N-[2-[2-(4-phenylsulfanylmethylbenzyloxy)phenyl]ethyl]amino}-5,6,7,8-tetrahydronaphthalene-2-carboxylic acid] | 115 | 91.8 | – |

Results, then the compound that gave them:

| Emax at 10 µM [1, 3] [%] | Emax at 10 µM [1, 4] [%] | EC50 Ratio (ODQ−/ODQ+) [2] | SMILES |
| --- | --- | --- | --- |
| 88.7 | 88 | – | C#Cc1ccc(COc2ccccc2CCN(CCCCC(=O)O)C2CCCc3cc(C(=O)O)ccc32)cc1 (stereo not drawn) [Example 19, 5-{N-(4-Carboxybutyl)-N-[2-[2-(4-ethynylbenzyloxy)phenyl]ethyl]amino}-5,6,7,8-tetrahydronaphthalene-2-carboxylic acid] |
| 108 | 100 | – | O=C(O)CCCCN(CCc1ccccc1OCc1ccc(C#CC2CCCCC2)cc1)C1CCCc2cc(C(=O)O)ccc21 (stereo not drawn) [Example 22, 5-{N-(4-Carboxybutyl)-N-[2-[2-(4-cyclohexylethynylbenzyloxy)phenyl]ethyl]amino}-5,6,7,8-tetrahydronaphthalene-2-carboxylic acid] |
| 135 | 114 | – | O=C(O)CCCCN(CCc1ccccc1OCc1ccc(CCC2CCCCC2)cc1)C1CCCc2cc(C(=O)O)ccc21 (stereo not drawn) [Example 24, 5-{N-(4-Carboxybutyl)-N-[2-[2-[4-(2-cyclohexylethyl)benzyloxy]phenyl]ethyl]amino}-5,6,7,8-tetrahydronaphthalene-2-carboxylic acid] |
| 119 | 86.9 | – | O=C(O)CCCCN(CCc1ccccc1OC[C@H]1CC[C@H](CCc2ccccc2)CC1)C1CCCc2cc(C(=O)O)ccc21 (stereo partly drawn) [Example 26, 5-{N-(4-Carboxybutyl)-N-[2-[2-[trans-4-(2-phenylethyl)cyclohexylmethoxy]phenyl]ethyl]amino}-5,6,7,8-tetrahydronaphthalene-2-carboxylic acid] |
| 109 | 140 | – | CC(C)(C)c1cccc(COc2ccccc2CCN(CCCCC(=O)O)C2CCCc3cc(C(=O)O)ccc32)c1 (stereo not drawn) [Example 41, 5-{N-[2-[2-(3-tert-Butylbenzyloxy)phenyl]ethyl]-N-(4-carboxybutyl)amino}-5,6,7,8-tetrahydronaphthalene-2-carboxylic acid] |
